ChEMBL document CHEMBL2429853, “Gardovatine, a novel Strychnos-Strychnos bisindole alkaloid with cytotoxicity from Gardneria oveta” (Bioorg Med Chem Lett, 2013)

Key:
Type in all cases: functional, cell-based
SMMC-7721 = test: Cytotoxicity against human SMMC7721 after 48 hrs by MTT assay; settings: SMMC-7721, 48 h
SW480 = test: Cytotoxicity against human SW480 after 48 hrs by MTT assay; settings: SW480, 48 h
A549 = test: Cytotoxicity against human A549 after 48 hrs by MTT assay; settings: A549, 48 h
MCF7 = test: Cytotoxicity against human MCF7 after 48 hrs by MTT assay; settings: MCF7, 48 h
HL-60 = test: Cytotoxicity against human HL60 after 48 hrs by MTT assay; settings: HL-60, 48 h

## C/C=C1/CN2CCc3c4n(c5ccccc35)/C=C3/[C@H]5C[C@@H]6N(CC[C@@]67c6ccccc6N(/C=C\4[C@H]1CC2=O)[C@@H]37)C/C5=C/C [(15S,19E,2'S,3'S,7'R,15'S,19'E)-GARDOVATINE]
SMMC-7721
  IC50: 10.5 µM
SW480
  IC50: 16.1 µM
A549
  IC50: 14.2 µM
MCF7
  IC50: 13.9 µM
HL-60
  IC50: 9.8 µM

## C/C=C1/CN2CC[C@]34c5ccccc5N5[C@H]3[C@H]([C@H]3O[C@]6([C@@H]7N3c3ccccc3[C@@]73CCN7C/C(=C/C)[C@@H]6C[C@H]73)[C@H]5OC)[C@H]1C[C@H]24 [DIVARINE]
SMMC-7721
  IC50: 3.2 µM
SW480
  IC50: 1.6 µM
A549
  IC50: 3.2 µM
MCF7
  IC50: 3 µM
HL-60
  IC50: 1.2 µM
